Organism: Rattus norvegicus
Test: Open TG-GATES - Regimen: Daily Repeat
Assay type: toxicity, organism-based, Sprague-Dawley
Design: regimen Daily Repeat, gender Male, age 6 weeks
Conditions: in vivo, po, 100 mg/kg, route gavage, dose level Low; for APTT / Bas / Eos / Fbg / Hb / Ht / Lym / MCH / MCHC / MCV / Mono / Neu / PT / Plat / RBC / Ret / WBC: tissue Blood; for KIDNEY_L / KIDNEY_R / KIDNEY_TOTAL: tissue Kidney; for LIVER: tissue Liver; for A/G / ALP / ALT / AST / BUN / CRE / Ca / Cl / DBIL / GLC / IP / K / LDH / Na / PL / RALB / TBIL / TC / TG / TP / gamma-GTP: tissue Plasma

Which results are given for `CCN1CCCC1CNC(=O)c1cc(S(N)(=O)=O)ccc1OC` (configuration not stated) [SULPIRIDE]?
TERMINAL_BW (72 h, time 3 day): 231.2 g; APTT (72 h, time 3 day): 17.2 s; Bas (72 h, time 3 day): 0%; Eos (72 h, time 3 day): 1%; Fbg (72 h, time 3 day): 274.6 mg/dL; Hb (72 h, time 3 day): 13.6 g/dL; Ht (72 h, time 3 day): 41.3%; Lym (72 h, time 3 day): 74.8%; MCH (72 h, time 3 day): 20.9 pg; MCHC (72 h, time 3 day): 32.8%; MCV (72 h, time 3 day): 63.7 fL; Mono (72 h, time 3 day): 3%; Neu (72 h, time 3 day): 20.8%; PT (72 h, time 3 day): 13.2 s; Plat (72 h, time 3 day): 122 x10_4/uL; RBC (72 h, time 3 day): 649.2 x10_4/ul; Ret (72 h, time 3 day): 6.5%; WBC (72 h, time 3 day): 95.3 x10_2/uL; KIDNEY_L (72 h, time 3 day): 1 g; KIDNEY_R (72 h, time 3 day): 1 g; KIDNEY_TOTAL (72 h, time 3 day): 2 g; LIVER (72 h, time 3 day): 10.7 g; A/G (72 h, time 3 day): 0.9; ALP (72 h, time 3 day): 1543 IU/L; ALT (72 h, time 3 day): 42.4 IU/L; AST (72 h, time 3 day): 66.4 IU/L; BUN (72 h, time 3 day): 13.6 mg/dL; CRE (72 h, time 3 day): 0.2 mg/dL; Ca (72 h, time 3 day): 11 mg/dL; Cl (72 h, time 3 day): 105.2 meq/L; DBIL (72 h, time 3 day): 0.01 mg/dL; GLC (72 h, time 3 day): 186.8 mg/dL; IP (72 h, time 3 day): 7.4 mg/dL; K (72 h, time 3 day): 4.2 meq/L; LDH (72 h, time 3 day): 70.4 IU/L; Na (72 h, time 3 day): 141 meq/L; PL (72 h, time 3 day): 142.2 mg/dL; RALB (72 h, time 3 day): 2.6 g/dL; TBIL (72 h, time 3 day): 0.058 mg/dL; TC (72 h, time 3 day): 72 mg/dL; TG (72 h, time 3 day): 106.6 mg/dL; TP (72 h, time 3 day): 5.6 g/dL; gamma-GTP (72 h, time 3 day): 1 IU/L; TERMINAL_BW ([…], time 7 day): 265 g; TERMINAL_BW ([…], time 14 day): 328.7 g; TERMINAL_BW ([…], time 28 day): 377.8 g; APTT ([…], time 7 day): 19.5 s; Bas ([…], time 7 day): 0.6%; Eos ([…], time 7 day): 1.2%; Fbg ([…], time 7 day): 289.6 mg/dL; Hb ([…], time 7 day): 14 g/dL; Ht ([…], time 7 day): 42.1%; Lym ([…], time 7 day): 80%; MCH ([…], time 7 day): 20.5 pg; MCHC ([…], time 7 day): 33.2%; MCV ([…], time 7 day): 61.9 fL; Mono ([…], time 7 day): 2.8%; Neu ([…], time 7 day): 14.6%; PT ([…], time 7 day): 13.1 s; Plat ([…], time 7 day): 123.5 x10_4/uL; RBC ([…], time 7 day): 681.6 x10_4/ul; Ret ([…], time 7 day): 5.3%; WBC ([…], time 7 day): 106.6 x10_2/uL; APTT ([…], time 14 day): 20.6 s; Bas ([…], time 14 day): 0%; Eos ([…], time 14 day): 1%; Fbg ([…], time 14 day): 286 mg/dL; Hb ([…], time 14 day): 14.6 g/dL; Ht ([…], time 14 day): 44%; Lym ([…], time 14 day): 75.2%; MCH ([…], time 14 day): 20.6 pg; MCHC ([…], time 14 day): 33.2%; MCV ([…], time 14 day): 62.1 fL; Mono ([…], time 14 day): 3%; Neu ([…], time 14 day): 20%; PT ([…], time 14 day): 13.1 s; Plat ([…], time 14 day): 121.3 x10_4/uL; RBC ([…], time 14 day): 708 x10_4/ul; Ret ([…], time 14 day): 4.5%; WBC ([…], time 14 day): 97.2 x10_2/uL; APTT ([…], time 28 day): 19.8 s; Bas ([…], time 28 day): 0%; Eos ([…], time 28 day): 1.2%; Fbg ([…], time 28 day): 274.2 mg/dL; Hb ([…], time 28 day): 16 g/dL; Ht ([…], time 28 day): 46.9%; Lym ([…], time 28 day): 76.2%; MCH ([…], time 28 day): 19.8 pg; MCHC ([…], time 28 day): 34.2%; MCV ([…], time 28 day): 57.7 fL; Mono ([…], time 28 day): 1.8%; Neu ([…], time 28 day): 19.8%; PT ([…], time 28 day): 13 s; Plat ([…], time 28 day): 110.8 x10_4/uL; RBC ([…], time 28 day): 812.6 x10_4/ul; Ret ([…], time 28 day): 2.2%; WBC ([…], time 28 day): 95.5 x10_2/uL; KIDNEY_L ([…], time 7 day): 1.1 g; KIDNEY_R ([…], time 7 day): 1.1 g; KIDNEY_TOTAL ([…], time 7 day): 2.2 g; KIDNEY_L ([…], time 14 day): 1.2 g; KIDNEY_R ([…], time 14 day): 1.2 g; KIDNEY_TOTAL ([…], time 14 day): 2.4 g; KIDNEY_L ([…], time 28 day): 1.2 g; KIDNEY_R ([…], time 28 day): 1.2 g; KIDNEY_TOTAL ([…], time 28 day): 2.5 g; LIVER ([…], time 7 day): 12.9 g; LIVER ([…], time 14 day): 14.2 g; LIVER ([…], time 28 day): 14.4 g; A/G ([…], time 7 day): 0.9; ALP ([…], time 7 day): 1433 IU/L; ALT ([…], time 7 day): 45.4 IU/L; AST ([…], time 7 day): 66.6 IU/L; BUN ([…], time 7 day): 14.8 mg/dL; CRE ([…], time 7 day): 0.2 mg/dL; Ca ([…], time 7 day): 10.7 mg/dL; Cl ([…], time 7 day): 105.6 meq/L; DBIL ([…], time 7 day): 0.008 mg/dL; GLC ([…], time 7 day): 175.2 mg/dL; IP ([…], time 7 day): 7.5 mg/dL; K ([…], time 7 day): 4.4 meq/L; LDH ([…], time 7 day): 64.2 IU/L; Na ([…], time 7 day): 141.8 meq/L; PL ([…], time 7 day): 145.2 mg/dL; RALB ([…], time 7 day): 2.6 g/dL; TBIL ([…], time 7 day): 0.056 mg/dL; TC ([…], time 7 day): 70.4 mg/dL; TG ([…], time 7 day): 116.4 mg/dL; TP ([…], time 7 day): 5.6 g/dL; gamma-GTP ([…], time 7 day): 1 IU/L; A/G ([…], time 14 day): 0.9; ALP ([…], time 14 day): 1376.8 IU/L; ALT ([…], time 14 day): 38.8 IU/L; AST ([…], time 14 day): 68.5 IU/L; BUN ([…], time 14 day): 15.8 mg/dL; CRE ([…], time 14 day): 0.2 mg/dL; Ca ([…], time 14 day): 11 mg/dL; Cl ([…], time 14 day): 104.5 meq/L; DBIL ([…], time 14 day): 0.015 mg/dL; GLC ([…], time 14 day): 197 mg/dL; IP ([…], time 14 day): 7.6 mg/dL; K ([…], time 14 day): 3.9 meq/L; LDH ([…], time 14 day): 73.5 IU/L; Na ([…], time 14 day): 141.2 meq/L; PL ([…], time 14 day): 145.5 mg/dL; RALB ([…], time 14 day): 2.7 g/dL; TBIL ([…], time 14 day): 0.06 mg/dL; TC ([…], time 14 day): 67.5 mg/dL; TG ([…], time 14 day): 149 mg/dL; TP ([…], time 14 day): 5.8 g/dL; gamma-GTP ([…], time 14 day): 1 IU/L; A/G ([…], time 28 day): 0.8; ALP ([…], time 28 day): 981.6 IU/L; ALT ([…], time 28 day): 36 IU/L; AST ([…], time 28 day): 65.6 IU/L; BUN ([…], time 28 day): 17.2 mg/dL; CRE ([…], time 28 day): 0.3 mg/dL; Ca ([…], time 28 day): 10.5 mg/dL; Cl ([…], time 28 day): 105.2 meq/L; DBIL ([…], time 28 day): 0.008 mg/dL; GLC ([…], time 28 day): 178 mg/dL; IP ([…], time 28 day): 6.4 mg/dL; K ([…], time 28 day): 3.8 meq/L; LDH ([…], time 28 day): 173.6 IU/L; Na ([…], time 28 day): 142.6 meq/L; PL ([…], time 28 day): 136 mg/dL; RALB ([…], time 28 day): 2.8 g/dL; TBIL ([…], time 28 day): 0.068 mg/dL; TC ([…], time 28 day): 63 mg/dL; TG ([…], time 28 day): 112 mg/dL; TP ([…], time 28 day): 6.2 g/dL; gamma-GTP ([…], time 28 day): 1 IU/L

From ChEMBL document CHEMBL3885861, “Open TG-GATES”
